# Measured values: publication PMC12396409, “Screening and hit evaluation of a microbial metabolite library against the pathogenic Plasmodium falciparum and Toxoplasma gondii parasites” (International Journal for Parasitology: Drugs and Drug …, 2025)
# Like-named read-outs stand apart in the source and are kept apart here.
# Legend:
# [1] = tested on: P. falciparum 3D7 parasites; assay: P. falciparum growth inhibition assay, 2-cycle (120 h treatment), delayed-death screen and dose-response; format: cell-based, Plasmodium falciparum; settings: for activity at 2 µg/mL: Plasmodium falciparum
# [2] = tested on: T. gondii RH strain (RH-Tub-eYFP) tachyzoites; assay: microbe, parasite or virus in culture; format: cell-based, Toxoplasma gondii; settings: 72 h
# [3] = tested on: P. falciparum 3D7 parasites; assay: P. falciparum growth inhibition assay, 1-cycle (72 h treatment), SYBR DNA staining (library screen at 2 μg/mL and dose-response); format: cell-based, Plasmodium falciparum
# [4] = library screen at 2 μg/mL, 120 h, % growth, replicate 1
# [5] = library screen at 2 μg/mL, 120 h, % growth, replicate 2
# [6] = library screen at 2 μg/mL, % growth, replicate 1
# [7] = library screen at 2 μg/mL, % growth, replicate 2
# [8] = library screen at 2 μg/mL, 72 h, % growth, replicate 1
# [9] = library screen at 2 μg/mL, 72 h, % growth, replicate 2
# [10] = P. falciparum 3D7, 120 h, library screen at 2 μg/mL, % growth, replicate 1
# [11] = P. falciparum 3D7, 120 h, library screen at 2 μg/mL, % growth, replicate 2
# [12] = T. gondii RH, library screen at 2 μg/mL, % growth, replicate 1
# [13] = T. gondii RH, library screen at 2 μg/mL, % growth, replicate 2
# [14] = P. falciparum 3D7, 72 h, library screen at 2 μg/mL, % growth, replicate 1
# [15] = P. falciparum 3D7, 72 h, library screen at 2 μg/mL, % growth, replicate 2
molecule,measurement,setting,value
C=C[C@]1(C)C[C@@H](OC(=O)CO)[C@]2(C)[C@H](C)CC[C@]3(CCC(=O)[C@H]32)[C@@H](C)[C@@H]1O [Pleuromutilin],activity in 120 h dose-response assay against P. falciparum,[1]; 120 h,did not display any activity
same,IC50,"[2]; Toxoplasma gondii, RH strain, mean ± S.D., n ≥ 3, read-out: IC50 (μM), T. gondii (converted)",> 1 µM
same,Screen (T. gondii),"[2]; library screen at 2 μg/mL, RH strain","I, I"
same,IC50,"[3]; Plasmodium falciparum, 3D7, 72 h treatment, mean ± S.D., n ≥ 3, read-out: IC50 (μM), P. falciparum",> 1 µM
same,Screen (P. falciparum),"[3]; library screen at 2 μg/mL, 3D7, 72 h, DD from the 120 h timepoint","I, I"
Amphomycin,Pf_120h_%Growth_Rep1,[1]; [4],117.00%
same,Pf_120h_%Growth_Rep2,[1]; [5],80.15%
same,Tg_72h_%Growth_Rep1,[2]; [6],94.79%
same,Tg_72h_%Growth_Rep2,[2]; [7],89.38%
same,Pf_72h_%Growth_Rep1,[3]; [8],83.34%
same,Pf_72h_%Growth_Rep2,[3]; [9],87.67%
COC1=C(OC)C(=O)C(C)=CC1=O [Fumigatin methylether],Pf_120h_%Growth_Rep1,[1]; [4],25.98%
same,Pf_120h_%Growth_Rep2,[1]; [5],27.21%
same,Tg_72h_%Growth_Rep1,[2]; [6],59.41%
same,Tg_72h_%Growth_Rep2,[2]; [7],97.15%
same,Pf_72h_%Growth_Rep1,[3]; [8],10.44%
same,Pf_72h_%Growth_Rep2,[3]; [9],11.19%
COc1cc(O)c2c(=O)oc3c(O)c(OC)cc(C)c3c2c1 [BIA-G1559],Pf_120h_%Growth_Rep1,[1]; [10],94.64%
same,Pf_120h_%Growth_Rep2,[1]; [11],147.16%
same,Tg_72h_%Growth_Rep1,[2]; [12],136.29%
same,Tg_72h_%Growth_Rep2,[2]; [13],91.52%
same,Pf_72h_%Growth_Rep1,[3]; [14],89.69%
same,Pf_72h_%Growth_Rep2,[3]; [15],92.13%
COC(=O)/C(=C1/OC(=O)C(c2ccccc2)=C1O)c1ccccc1 [Vulpinic acid],activity at 2 µg/mL,"[1]; 3D7, P. falciparum, 120 h, screen at 2 μg/mL, replicate 1, read-out: Pf_120h_%Growth_Rep1",84.9%
same,activity at 2 µg/mL,"[1]; 3D7, P. falciparum, 120 h, screen at 2 μg/mL, replicate 2, read-out: Pf_120h_%Growth_Rep2",103%
same,percent parasite growth at 2 µg/mL,"[2]; Toxoplasma gondii, T. gondii, screen at 2 μg/mL, replicate 1, read-out: Tg_72h_%Growth_Rep1",109%
same,percent parasite growth at 2 µg/mL,"[2]; Toxoplasma gondii, T. gondii, screen at 2 μg/mL, replicate 2, read-out: Tg_72h_%Growth_Rep2",97.7%
same,activity at 2 µg/mL,"[3]; Plasmodium falciparum, 3D7, P. falciparum, 72 h, screen at 2 μg/mL, replicate 1, read-out: Pf_72h_%Growth_Rep1",79.7%
same,activity at 2 µg/mL,"[3]; Plasmodium falciparum, 3D7, P. falciparum, 72 h, screen at 2 μg/mL, replicate 2, read-out: Pf_72h_%Growth_Rep2",129%
O=c1cc(CO)occ1O [BIA-K1696],Pf_120h_%Growth_Rep1,[1]; [10],76.01%
same,Pf_120h_%Growth_Rep2,[1]; [11],110.07%
same,Tg_72h_%Growth_Rep1,[2]; [12],111.73%
same,Tg_72h_%Growth_Rep2,[2]; [13],90.68%
same,Pf_72h_%Growth_Rep1,[3]; [14],83.60%
same,Pf_72h_%Growth_Rep2,[3]; [15],96.29%
C[C@H]1NC(=O)[C@@H]2CCCN2C1=O [Cyclo(D-Ala-L-Pro)],Pf_120h_%Growth_Rep1,"[1]; P. falciparum, 120 h, screen at 2 μg/mL, replicate 1",102.13%
same,Pf_120h_%Growth_Rep2,"[1]; P. falciparum, 120 h, screen at 2 μg/mL, replicate 2",92.71%
same,Tg_72h_%Growth_Rep1,"[2]; T. gondii, screen at 2 μg/mL, replicate 1",121.18%
same,Tg_72h_%Growth_Rep2,"[2]; T. gondii, screen at 2 μg/mL, replicate 2",102.00%
same,Pf_72h_%Growth_Rep1,"[3]; P. falciparum, 72 h, screen at 2 μg/mL, replicate 1",84.19%
same,Pf_72h_%Growth_Rep2,"[3]; P. falciparum, 72 h, screen at 2 μg/mL, replicate 2",89.96%
C/C=C/[C@@H]1C=C[C@@H]2C[C@H](C)CC[C@H]2[C@]1(C)/C(O)=C1/C(=O)[C@H](CO)N(C)C1=O [Equisetin],Pf_120h_%Growth_Rep1,[1]; [4],83.53%
same,Pf_120h_%Growth_Rep2,[1]; [5],117.48%
same,Tg_72h_%Growth_Rep1,[2]; [6],89.36%
same,Tg_72h_%Growth_Rep2,[2]; [7],86.41%
same,Pf_72h_%Growth_Rep1,[3]; [8],83.58%
same,Pf_72h_%Growth_Rep2,[3]; [9],91.13%
CO[C@H]1C[C@@H]2CC[C@@H](C)[C@@](O)(O2)C(=O)C(=O)N2CCCC[C@H]2C(=O)O[C@H]([C@H](C)C[C@@H]2CC[C@@H](O)[C@H](OC)C2)CC(=O)[C@H](C)/C=C(\C)[C@@H](O)[C@@H](OC)C(=O)[C@H](C)C[C@H](C)/C=C/C=C/C=C/1C [Rapamycin],activity at 2 µg/mL,"[1]; 3D7, 120 h, P. falciparum, 120 h, parasite screen 2 μg/mL, % growth, replicate 1, read-out: Pf_120h_%Growth_Rep1",104%
same,activity at 2 µg/mL,"[1]; 3D7, 120 h, P. falciparum, 120 h, parasite screen 2 μg/mL, % growth, replicate 2, read-out: Pf_120h_%Growth_Rep2",102%
same,percent parasite growth at 2 µg/mL,"[2]; Toxoplasma gondii, T. gondii, parasite screen 2 μg/mL, % growth, replicate 1, read-out: Tg_72h_%Growth_Rep1",132%
same,percent parasite growth at 2 µg/mL,"[2]; Toxoplasma gondii, T. gondii, parasite screen 2 μg/mL, % growth, replicate 2, read-out: Tg_72h_%Growth_Rep2",75.7%
same,activity at 2 µg/mL,"[3]; Plasmodium falciparum, 3D7, 72 h, P. falciparum, 72 h, parasite screen 2 μg/mL, % growth, replicate 1, read-out: Pf_72h_%Growth_Rep1",86.2%
same,activity at 2 µg/mL,"[3]; Plasmodium falciparum, 3D7, 72 h, P. falciparum, 72 h, parasite screen 2 μg/mL, % growth, replicate 2, read-out: Pf_72h_%Growth_Rep2",116%
C=C1c2cccc(O)c2C(=O)C2=C(O)[C@]3(O)C(=O)C(C(N)=O)=C(O)[C@@H](N(C)C)[C@@H]3[C@@H](O)[C@H]12 [BIA-M1467],Pf_120h_%Growth_Rep1,"[1]; P. falciparum 3D7, 120 h, parasite screen at 2 μg/mL, % growth, replicate 1",96.98%
same,Pf_120h_%Growth_Rep2,"[1]; P. falciparum 3D7, 120 h, parasite screen at 2 μg/mL, % growth, replicate 2",103.99%
same,Tg_72h_%Growth_Rep1,"[2]; T. gondii, parasite screen at 2 μg/mL, % growth, replicate 1",118.90%
same,Tg_72h_%Growth_Rep2,"[2]; T. gondii, parasite screen at 2 μg/mL, % growth, replicate 2",95.35%
same,Pf_72h_%Growth_Rep1,"[3]; P. falciparum 3D7, 72 h, parasite screen at 2 μg/mL, % growth, replicate 1",83.43%
same,Pf_72h_%Growth_Rep2,"[3]; P. falciparum 3D7, 72 h, parasite screen at 2 μg/mL, % growth, replicate 2",110.33%
